Experimental data reported in patent US4740233A, “Substituted 1,2,4-triazolo[1,5-a]-pyrimidine-2-sulfonamides and compositions and methods of controlling undesired vegetation and suppressing the nitrification of ammonium nitrogen in soil” (The Dow Chemical Company, priority 1986, dated 1988).

Key:
[1] = test system: rape; experiment: Postemergent control of plant species; type: in vivo, Brassica napus; conditions: Brassica napus, post-emergence, 336 h, read-out: percent postemergent control
Procedure, shortened: (§1)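 Compounds were taken up in acetone at twice the final concentration, then diluted with an equal volume of water containing 0.1% surfactant and sprayed onto greenhouse-grown plants at the 2-4 leaf stage. Plants were kept about two weeks under growth conditions; control is growth reduction relative to untreated plants of the same species.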

[2] = test system: sugar beet; experiment: Postemergent control of plant species; type: in vivo, Beta saccharifera; conditions: Beta vulgaris, post-emergence, 336 h, read-out: percent postemergent control
Procedure, shortened: as §1

[3] = test system: cocklebur; experiment: Postemergent control of plant species; type: in vivo, Xanthium spp.; conditions: Xanthium strumarium, post-emergence, 336 h, read-out: percent postemergent control
Procedure, shortened: as §1

[4] = test system: annual morning glory; experiment: Postemergent control of plant species; type: in vivo, Ipomoea spp.; conditions: Ipomoea, post-emergence, 336 h, read-out: percent postemergent control
Procedure, shortened: as §1

[5] = test system: pigweed; experiment: Postemergent control of plant species; type: in vivo, Amaranthus spp.; conditions: Amaranthus retroflexus, post-emergence, 336 h, read-out: percent postemergent control
Procedure, shortened: as §1

[6] = test system: velvetleaf; experiment: Postemergent control of plant species; type: in vivo, Abutilon theophrasti; conditions: Abutilon theophrasti, post-emergence, 336 h, read-out: percent postemergent control
Procedure, shortened: as §1

[7] = test system: rice; experiment: Postemergent control of plant species; type: in vivo, Oryza sativa; conditions: Oryza sativa, post-emergence, 336 h, read-out: percent postemergent control
Procedure, shortened: as §1

[8] = test system: sorghum; experiment: Postemergent control of plant species; type: in vivo, Sorghum vulgare; conditions: Sorghum, post-emergence, 336 h, read-out: percent postemergent control
Procedure, shortened: as §1

[9] = test system: barnyardgrass; experiment: Postemergent control of plant species; type: in vivo, Echinochloa crusgalli; conditions: Echinochloa crus-galli, post-emergence, 336 h, read-out: percent postemergent control
Procedure, shortened: as §1

[10] = test system: crabgrass; experiment: Postemergent control of plant species; type: in vivo, Digitaria spp.; conditions: Digitaria sanguinalis, post-emergence, 336 h, read-out: percent postemergent control
Procedure, shortened: as §1

[11] = test system: yellow foxtail; experiment: Postemergent control of plant species; type: in vivo, Setaria lutescens; conditions: Setaria, post-emergence, 336 h, read-out: percent postemergent control
Procedure, shortened: as §1

[12] = test system: johnson grass; experiment: Postemergent control of plant species; type: in vivo, Sorghum halepense; conditions: Sorghum halepense, post-emergence, 336 h, read-out: percent postemergent control
Procedure, shortened: as §1

[13] = test system: wild oats; experiment: Postemergent control of plant species; type: in vivo, Avena fatua; conditions: Avena fatua, post-emergence, 336 h, read-out: percent postemergent control
Procedure, shortened: as §1

[14] = test system: yellow nutsedge; experiment: Postemergent control of plant species; type: in vivo, Cyperus esculentus; conditions: Cyperus, post-emergence, 336 h, read-out: percent postemergent control
Procedure, shortened: as §1

[15] = test system: cotton; experiment: Preemergent control of plant species; type: in vivo, Gossypium spp.; conditions: Gossypium hirsutum, pre-emergence, 336 h; 0.25 lb/acre; read-out: percent preemergent control
Procedure, shortened: (§2)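 Seeds sown in agricultural soil beds in a greenhouse received aqueous emulsions of test compositions applied uniformly over the bed surface at the listed rates; water-treated beds served as control. After two weeks under greenhouse growth conditions, control was scored as growth reduction versus untreated plants of the same species.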

[16] = test system: rape; experiment: Preemergent control of plant species; type: in vivo, Brassica napus; conditions: Brassica napus, pre-emergence, 336 h; 0.25 lb/acre; read-out: percent preemergent control
Procedure, shortened: as §2

[17] = test system: soybean; experiment: Preemergent control of plant species; type: in vivo, Glycine max.; conditions: Glycine max, pre-emergence, 336 h; 0.25 lb/acre; read-out: percent preemergent control
Procedure, shortened: as §2

[18] = test system: jimsonweed; experiment: Preemergent control of plant species; type: in vivo, Datura stramonium; conditions: Datura stramonium, pre-emergence, 336 h; 0.25 lb/acre; read-out: percent preemergent control
Procedure, shortened: as §2

[19] = test system: annual morning glory; experiment: Preemergent control of plant species; type: in vivo, Ipomoea spp.; conditions: Ipomoea, pre-emergence, 336 h; 0.25 lb/acre; read-out: percent preemergent control
Procedure, shortened: as §2

[20] = test system: pigweed; experiment: Preemergent control of plant species; type: in vivo, Amaranthus spp.; conditions: Amaranthus retroflexus, pre-emergence, 336 h; 0.25 lb/acre; read-out: percent preemergent control
Procedure, shortened: as §2

[21] = test system: corn; experiment: Preemergent control of plant species; type: in vivo, Zea mays; conditions: Zea mays, pre-emergence, 336 h; 0.25 lb/acre; read-out: percent preemergent control
Procedure, shortened: as §2

[22] = test system: rice; experiment: Preemergent control of plant species; type: in vivo, Oryza sativa; conditions: Oryza sativa, pre-emergence, 336 h; 0.25 lb/acre; read-out: percent preemergent control
Procedure, shortened: as §2

[23] = test system: wheat; experiment: Preemergent control of plant species; type: in vivo, Triticum aestivum; conditions: Triticum aestivum, pre-emergence, 336 h; 0.25 lb/acre; read-out: percent preemergent control
Procedure, shortened: as §2

[24] = test system: barnyardgrass; experiment: Preemergent control of plant species; type: in vivo, Echinochloa crusgalli; conditions: Echinochloa crus-galli, pre-emergence, 336 h; 0.25 lb/acre; read-out: percent preemergent control
Procedure, shortened: as §2

[25] = test system: crabgrass; experiment: Preemergent control of plant species; type: in vivo, Digitaria spp.; conditions: Digitaria sanguinalis, pre-emergence, 336 h; 0.25 lb/acre; read-out: percent preemergent control
Procedure, shortened: as §2

[26] = test system: johnson grass; experiment: Preemergent control of plant species; type: in vivo, Sorghum halepense; conditions: Sorghum halepense, pre-emergence, 336 h; 0.25 lb/acre; read-out: percent preemergent control
Procedure, shortened: as §2

[27] = test system: yellow foxtail; experiment: Preemergent control of plant species; type: in vivo, Setaria lutescens; conditions: Setaria, pre-emergence, 336 h; 0.25 lb/acre; read-out: percent preemergent control
Procedure, shortened: as §2

[28] = test system: yellow nutsedge; experiment: Preemergent control of plant species; type: in vivo, Cyperus esculentus; conditions: Cyperus, pre-emergence, 336 h; 0.25 lb/acre; read-out: percent preemergent control
Procedure, shortened: as §2

Cc1cc(C)n2nc(S(=O)(=O)Nc3ccccc3[N+](=O)[O-])nc2n1 [Compound 12]
plant injury at 500 ppm [1]: 100% | plant injury at 500 ppm [2]: 95% | pest or weed control at 500 ppm [3]: 100% | pest or weed control at 500 ppm [4]: 100% | pest or weed control at 500 ppm [5]: 100% | pest or weed control at 500 ppm [6]: 95% | plant injury at 500 ppm [7]: 25% | plant injury at 500 ppm [8]: 75% | pest or weed control at 500 ppm [9]: 80% | pest or weed control at 500 ppm [10]: 25% | pest or weed control at 500 ppm [11]: 20% | pest or weed control at 500 ppm [12]: 55% | pest or weed control at 500 ppm [13]: 0% | pest or weed control at 500 ppm [14]: 90% | plant injury at 280.212 g/ha [15]: 95% | plant injury at 280.212 g/ha [16]: 95% | plant injury at 280.212 g/ha [17]: 95% | pest or weed control at 280.212 g/ha [18]: 0% | pest or weed control at 280.212 g/ha [19]: 50% | pest or weed control at 280.212 g/ha [20]: 60% | plant injury at 280.212 g/ha [21]: 50% | plant injury at 280.212 g/ha [22]: 10% | plant injury at 280.212 g/ha [23]: 0% | pest or weed control at 280.212 g/ha [24]: 40% | pest or weed control at 280.212 g/ha [25]: 10% | pest or weed control at 280.212 g/ha [26]: 80% | pest or weed control at 280.212 g/ha [27]: 0% | pest or weed control at 280.212 g/ha [28]: 50%
